In PubChem BioAssay AID449750 (Broad Institute, 2010):
“And” between values parts separate entries of the source, which are not always exact repeats. Identical values can stand only once. The source made the active and inactive calls. How the calls were made is not given here.

Experiment: non-covalent RecA intein splicing inhibitors, dose response, biochemical, cell-free, fluorescence, secondary screen (AID 449750)

Structure (SMILES) | AC50
COc1cc(NCCCCCCCN)c2ncccc2c1 | 13.6 µM
O=c1[nH]cc(N=Cc2cc(Cl)cc(Cl)c2O)c(=O)[nH]1 | > 38 µM (inactive)
Cc1[nH]nc2c1C(c1cn[nH]c1-c1ccc(F)cc1)C(C#N)=C(N)O2 (stereo not given) | > 38 µM (inactive)
O=C1C=C(Nc2ccccc2O)c2ccccc2C1=O | > 38 µM (inactive)
Cc1ccc(N(C(=O)CCl)C(C(=O)NC2CCCCC2)c2cccnc2)cc1C (stereo not given) | 1 µM
Cc1nn(Cc2ccccc2)c2c1C(c1ccncc1)C(C#N)=C(N)O2 (stereo not given) | > 38 µM (inactive)
Cc1[nH][nH]c(=O)c1C(c1cc2c(cc1Br)OCO2)c1c(C)[nH][nH]c1=O | 20.2 µM
O=c1c2ccccc2nc2n1CCS2(=O)=O | > 38 µM (inactive)
O=c1[nH]c(N2CCOCC2)cc2ccccc12 | > 38 µM (inactive)
CCc1nnc(NC(=O)c2nc(S(=O)(=O)Cc3ccc(C)cc3)ncc2Cl)s1 | > 38 µM (inactive)
O=C1C=C(N2CCCCC2)c2ccccc2C1=O | 10.4 µM
O=C(CSCc1ccc([N+](=O)[O-])cc1)N/N=C/c1cccnc1 | > 38 µM (inactive)
Oc1ccc(C=Nc2ccc3ncccc3c2)c(O)c1 | 3.75 µM
CC1=NNC(=O)/C1=C\c1cn(-c2ccccc2)nc1-c1ccccc1 | 8.49 µM
CC(=O)N1CCC2(CC1)C(C#N)=C(N)Oc1n[nH]c(C)c12 | > 38 µM (inactive)
C/C(CC(=O)Nc1cc(C)ccn1)=N\NC(=O)c1ccc(C)cc1 | > 38 µM (inactive)
CCOc1ccc2c(c1)-c1c(ssc1=S)C(C)(C)N2 | > 38 µM (inactive)
CNCC(O)CN(c1ccccc1)c1ccccc1 (stereo not given) | 10.5 µM
CC(C)Cc1ccc(-c2cc(=O)[nH][nH]2)cc1 | 13.1 µM
CCOC(=O)CSc1nc2sc3c(c2c(=O)n1C1CCCCC1)CCN(C)C3 | > 38 µM (inactive)
Nc1nc(CCl)nc(Nc2ccc3ccccc3c2)n1 | 15.7 µM
Cc1ccc(CN=Cc2[nH]c3ccc(Br)c(Cl)c3c2O)cc1 | 22.9 µM
Cn1c(=O)[nH]c(=O)c2c1nc([N+](=O)[O-])n2Cc1ccccc1 | > 38 µM (inactive)
CCCc1[nH]nc2c1C(c1ccc(OC)cc1OC)C(C#N)=C(N)O2 (stereo not given) | 32.3 µM
COC(=O)c1sc(-c2cccs2)cc1NC(=O)/C=C/C(=O)O | 35.9 µM
O=S(=O)(Nc1cc2nc3ccccc3nc2n1Cc1ccccc1)c1ccc(Cl)cc1 | 5.18 µM
Oc1cc(O)c2c(c1)O[C@H](c1ccc(O)c(O)c1)[C@@H](O)C2 | > 38 µM (inactive)

Structure (SMILES) | AC50
COc1cc2c(cc1OC)-c1c(OC)c(OC)cc3c1[C@H](C2)N(C)CC3 | 27 µM
N#CC1(NC(=O)COC(=O)c2cc(O)c3ccccc3c2O)CCCCC1 | 10.2 µM
COc1ccc(C(=O)Nc2ccc(O)c3ccccc23)cc1 | 3.85 µM
CC1=NN(c2ccccc2)C(=O)/C1=C/c1c(O)n(-c2ccc(F)c(Cl)c2)[nH]c1=O | 10.3 µM
O=C1c2cc(F)ccc2-n2c1nc1ccccc1c2=O | > 38 µM (inactive)
c1ccc(CNc2nc(NCc3ccccc3)c3ccccc3n2)cc1 | 7.61 µM
COc1cccc(C(c2c(C)[nH]n(-c3ccccc3)c2=O)c2c(C)[nH]n(-c3ccccc3)c2=O)c1O | 2.35 µM
O=C1CCN(S(=O)(=O)c2ccccc2)N1 | > 38 µM (inactive)
CS/C(=C\[N+](=O)[O-])Nc1ccc(Cl)cc1 | > 38 µM (inactive)
CC(C)c1[nH]nc2c1C(Cc1ccccc1)C(C#N)=C(N)O2 (stereo not given) | > 38 µM (inactive)
O=C(CCl)N(Cc1cc(=O)[nH]c2ccccc12)c1ccccc1 | 8.46 µM
C/C(=N\NC(=O)Cc1cc(=O)[nH][nH]1)c1cccc([N+](=O)[O-])c1 | 30.5 µM
Cc1[nH]n(-c2ccccc2)c(=O)c1C(c1ccc(O)c([N+](=O)[O-])c1)c1c(C)[nH]n(-c2ccccc2)c1=O | 2.77 µM
COC(=O)COc1ccc(C(c2c(C)[nH][nH]c2=O)c2c(C)[nH][nH]c2=O)cc1 | 13 µM
COc1ccc(S(=O)(=O)Nc2c(O)ccc3ccccc23)cc1OC | 22.9 µM
CCOC(=O)N1CCC(c2cc(=O)n(-c3ccccc3)[nH]2)CC1 | 6.18 µM
Cc1cccc(C)c1NC(=O)c1nc(S(=O)(=O)Cc2ccccc2)ncc1Cl | > 38 µM (inactive)
CCc1ccc(S(=O)(=O)Nc2ccc(O)c3ccccc23)cc1 | 0.535 µM
Cc1c(C#N)c(NC(=O)CCl)n(Cc2ccccc2)c1C | 7.6 µM
O=S(=O)(Nc1c(O)ccc2ccccc12)c1cccc2ccccc12 | 26.8 µM
COc1ccccc1NC(=O)CSc1nc2c(sc3ccccc32)c(=O)n1CCN(C)C | > 38 µM (inactive)
COc1ccccc1-c1cc(C(F)(F)F)nc(S(=O)(=O)CCCC(=O)N2CCOCC2)n1 | 13.6 µM
COc1ccc(OC)c(N2C(=O)C(Cl)=C(N3CCOCC3)C2=O)c1 | > 38 µM (inactive)
CSc1nc(=S)n(-c2ccc([N+](=O)[O-])cc2)c(C)c1C(C)=O | > 38 µM (inactive)
c1cc2cn[nH]c2cc1NC1CCCCCC1 | 36.2 µM
Nc1ccc2ncccc2c1 | 15.5 µM
COc1ccc(NC(=S)Nc2ccc3nsnc3c2)cc1 | 25.2 µM

Structure (SMILES) | AC50
Cc1[nH]n(-c2ccccc2)c(=O)c1C(c1cccc([N+](=O)[O-])c1)c1c(C)[nH]n(-c2ccccc2)c1=O | 8.53 µM
COc1cc(C(=O)CSc2nnc(-c3ccc(O)cc3)n2CC2CCCO2)ccc1NC(C)=O (stereo not given) | > 38 µM (inactive)
N=c1c2c(ncn1Cc1ccco1)Oc1ccc3ccccc3c1C2c1ccccc1 (stereo not given) | 13.1 µM
O=[N+]([O-])c1c(NCc2ccco2)ccc2nonc12 | > 38 µM (inactive)
CS(=O)(=O)c1nc([N+](=O)[O-])nn1CCCc1ccccc1 | 10.7 µM
CN(CC(=O)Nc1ccc(N2CCOCC2)cc1)CC(=O)Nc1cccc(C#N)c1 | > 38 µM (inactive)
Cc1ccc2c(c1)-c1c(ssc1=S)C(C)(C)N2C(=O)CSC1=NCCS1 | 32.5 µM
Cc1ccc2c(c1)c1nnc(SCC(=O)Nc3ccc(N(C)C)cc3)nc1n2CC(=O)O | > 38 µM (inactive)
CC(=O)NC1C(=O)N(CCN2CCOCC2)c2ccc(Cl)cc21 (stereo not given) | 34.1 µM
CCOc1cc(C(c2c(C)[nH][nH]c2=O)c2c(C)[nH][nH]c2=O)ccc1OS(=O)(=O)c1ccc(C)cc1 | 4.78 µM
COc1ccc(S(=O)(=O)/N=C2\C=C(NS(=O)(=O)c3ccccc3)C(=O)c3ccccc32)cc1 | 2.95 µM
COC(=O)N/N=C\c1ccc(OC(=O)c2ccco2)cc1 | > 38 µM (inactive)
CC(C)(C)c1ccc(S(=O)(=O)/N=C2\C=C(NS(=O)(=O)c3ccccc3)C(=O)c3ccccc32)cc1 | 5.5 µM
O=[N+]([O-])c1ccc(S(=O)(=O)c2cccc(C(F)(F)F)c2)nc1 | > 38 µM (inactive)
Cn1c2ccccc2c2cc(C(=O)NNC(=O)CCl)sc21 | 16.2 µM
CCOc1ccc(C(c2c(C)[nH][nH]c2=O)c2c(C)[nH][nH]c2=O)cc1OCC | 9.1 µM
CC1=NN(c2ccc(Cl)c(C(=O)O)c2)C(=O)C1 | 3.21 µM
COC(=O)C1=NN(C(C)=O)C2(CC(=O)N(c3cc(C)cc(C)c3)C2=O)C1 (stereo not given) | > 38 µM (inactive)
Cc1c([N+](=O)[O-])cnc(Sc2ccccc2)c1[N+](=O)[O-] | 1.23 µM
COc1cc(C(=O)NCC(=O)N/N=C/c2cccc(OC(=O)c3ccco3)c2)cc(OC)c1OC | > 38 µM (inactive)
Cc1cccc(Cn2ncc(Cl)c(Cl)c2=O)c1 | 18 µM
NS(=O)(=O)c1ccc(N=Cc2c(O)c3ccccc3oc2=O)cc1 | > 38 µM (inactive)
CC(CCn1cccn1)NC(=O)CCc1nnc(CCc2ccccc2)o1 (stereo not given) | > 38 µM (inactive)
Cc1ccc(N(NC(=O)C(O)(c2ccccc2)c2ccccc2)C(=O)CCl)cc1 | 1.57 µM
Cc1[nH]nc2c1C(c1ccsc1C)C(C#N)=C(N)O2 (stereo not given) | > 38 µM (inactive)
Cc1ccc(CNC(=O)c2ccc(N(C)S(=O)(=O)c3ccccc3)cc2)cc1 | > 38 µM (inactive)
COc1ccc(C=C(c2nc3ccccc3s2)c2nc3ccccc3s2)cc1O | 3.04 µM

Structure (SMILES) | AC50
Cc1ccc(C(=O)n2cnc3ccccc32)cc1C | > 38 µM (inactive)
CC(C)N(c1ccccc1)c1ccc(NC(=O)CCl)cc1 | 1.45 µM
Cc1sc2ncnc(Sc3nnnn3-c3ccccc3)c2c1C | > 38 µM (inactive)
Cc1[nH]n(-c2ccccc2)c(=O)c1C(c1cccc([N+](=O)[O-])c1O)c1c(C)[nH]n(-c2ccccc2)c1=O | 1.72 µM
O=C(NCCc1ccccc1)C(c1cccs1)N(C(=O)CCl)c1ccc(Cl)cc1 (stereo not given) | 1.03 µM
Cc1ccc(Sc2c([N+](=O)[O-])ncn2C)cc1 | > 38 µM (inactive)
CC(C)OC(=O)CN1C(=O)C(=O)c2ccccc21 | 37.2 µM
O=C(N/N=C/c1coc2ccc(Cl)cc2c1=O)c1ccc(O)cc1 | > 38 µM (inactive)
Cn1cnc([N+](=O)[O-])c1Sc1nnc(-c2cccnc2)n1C | > 38 µM (inactive)
Cc1nn(-c2cccc(Cl)c2)c2c1C(c1cccnc1)C(C#N)=C(N)O2 (stereo not given) | 34.6 µM
CC1=NN(c2ccc(Cl)cc2)C(=O)C1 | 3.71 µM
O=C(Cc1cc(=O)[nH][nH]1)N/N=C/C(Cl)=C/c1ccccc1 | 19.8 µM and 11.1 µM
COc1cc(C(c2c(C)[nH][nH]c2=O)c2c(C)[nH][nH]c2=O)ccc1OCc1ccc([N+](=O)[O-])cc1 | 6.41 µM
COC(=O)c1c(NC(=O)/C=C/C(=O)O)sc(Cc2ccccc2)c1C | 2.33 µM
Cc1[nH]n(-c2ccccc2)c(=O)c1C(c1ccc([N+](=O)[O-])cc1)c1c(C)[nH]n(-c2ccccc2)c1=O | 3.88 µM
Cc1cc[n+](C2=C([O-])c3ccccc3C(=O)/C2=N\S(=O)(=O)c2cccs2)cc1C | 4.29 µM
O=C(Cc1cc(=O)[nH][nH]1)N/N=C/C=C/c1ccccc1 | 20.8 µM
COC(=O)CC1=NN(c2nc(C)cc(C)n2)C(=O)C1 | > 38 µM (inactive)
COc1cccc(C(c2c(C)[nH]n(-c3ccccc3)c2=O)c2c(C)[nH]n(-c3ccccc3)c2=O)c1OC | 2.19 µM
CCSc1c([N+](=O)[O-])c(=O)n(-c2ccccc2)c2ccccc12 | > 38 µM (inactive)
Cc1cccc(CS(=O)(=O)c2ncc(Cl)c(C(=O)Nc3c(C)cccc3C)n2)c1 | > 38 µM (inactive)
COc1cccc(Nc2c([N+](=O)[O-])cncc2[N+](=O)[O-])c1 | > 38 µM (inactive)
CCOC(=O)c1c(OCC)[nH]c2c1cc(O)c1ccccc12 | 32.1 µM
O=C(Nc1nc(-c2ccccc2)cs1)c1ccccc1NS(=O)(=O)c1ccc(F)cc1 | 8.16 µM
